Reference: patent US7897765B2, “Therapeutic compounds and uses thereof” (Elixir Pharmaceuticals, Inc., priority 2003, dated 2011)

These compounds were tested on male C57BL/6J mice (assay: fast-refeed (refeeding) assay, food intake). Details: not given.
Type: in vivo
Procedure: Food is removed at 6 pm for an overnight (˜16 hour) fast. Beginning at 10 am on the next morning, mice are administered with either vehicle (e.g., saline+acetic acid, pH=5) or the compound of interest. Mice are then returned to their home cages and pre-weighed food (approximately 90 grams) is immediately returned to the food hoppers in each cage. The weight of the food remaining in the food hoppers is measured at 30 minutes, 1 hour, 2 hours, and 4 hours post compound/vehicle administration. Final body weights are then recorded for the mice.
Animals: For this particular experiment, male C57BL/6J mice (Vendor: Taconic; Age: 7 weeks; Weight Range: 19-25 g) were used. The animals were housed individually during acclimation to facility (3-5 days) and throughout the study. […]
• Mice were weighed and sorted into groups based on Body Weight. • Food was removed at 6 pm for an overnight (˜16 hour) fast. […] After injections mice were returned to their home cages. • Following each injection, pre-weighed food was immediately returned to the food hoppers. • Note: food was weighed the morning injections were administered. • Mouse weighed • Food weighed (approx. 90 g) • Mouse injected • Pre-weighed food returned to hopper • Food Weights were measured at 30 min, 1 hr, 2 hr, and 4 hrs post injection. • Final body weights were recorded and mice were euthanized via CO2 asphyxiation.

Compound	feeding activity of mice in the fast refeed assay
substance P	alters feeding activity

These compounds were tested against GHS-R (Homo sapiens, UniProt Q92847) (assay: cell based assay of GHS-R antagonist/agonist activity). Details: GHS-R antagonist Ki and/or agonist EC50 class.
Chain of GHS-R (Q92847 whole entry, species assumed): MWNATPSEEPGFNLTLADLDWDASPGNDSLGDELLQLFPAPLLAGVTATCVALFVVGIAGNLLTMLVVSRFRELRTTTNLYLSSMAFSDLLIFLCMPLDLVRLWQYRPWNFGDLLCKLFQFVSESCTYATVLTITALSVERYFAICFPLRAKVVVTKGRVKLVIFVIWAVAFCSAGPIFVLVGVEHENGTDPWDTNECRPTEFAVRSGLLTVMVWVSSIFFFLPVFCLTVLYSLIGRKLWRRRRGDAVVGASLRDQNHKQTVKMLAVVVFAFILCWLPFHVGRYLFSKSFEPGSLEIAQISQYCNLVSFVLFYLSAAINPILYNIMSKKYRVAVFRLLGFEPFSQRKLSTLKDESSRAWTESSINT
Design: key: A refers to a compound having antagonist activity with Ki<100 nM in a cell based assay; B refers to a compound having agonist activity with EC50<100 nM in a cell based assay; C refers to a compound having antagonist activity of Ki>100 nM and <1500 nM in a cell based assay; D refers to a compound having antagonist activity with Ki, <100 nM and agonist activity with EC50<100 nM in a cell-based assay; E refers to other exemplary compounds
In short: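 COS-7 cells transfected with GHS-R, labelled with [3H]-myo-inositol, preincubated in 10 mM LiCl buffer pH 7.4, then given compound 45 min at 37 °C; [3H]-IP isolated by anion exchange. Alternatively, CREB-luciferase reporter in transfected HEK293 with 5 h compound exposure. IC50/EC50 by nonlinear regression.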

Compound	Activity
CS(=O)(=O)N1CC2(CCN(C(=O)[C@@H](COCc3ccccc3)NS(=O)(=O)CCCN3CCCC3)CC2)c2ccccc21 [Compound 159]	A (A refers to a compound having antagonist activity with Ki<100 nM in a cell based assay)
CN([C@H](COCc1ccccc1)C(=O)N1CCC2(CC1)CN(S(C)(=O)=O)c1ccccc12)S(=O)(=O)CCCCl [Compound 160]	E
COCCCS(=O)(=O)N[C@H](COCc1ccccc1)C(=O)N1CCC2(CC1)CN(S(C)(=O)=O)c1ccccc12 [Compound 161]	E
CCN(CC)CCCS(=O)(=O)N(C)[C@H](COCc1ccccc1)C(=O)N1CCC2(CC1)CN(S(C)(=O)=O)c1ccccc12 [Compound 162]	A (A refers to a compound having antagonist activity with Ki<100 nM in a cell based assay)
CCN(CC)CCCS(=O)(=O)N[C@H](CCc1ccccc1)C(=O)N1CCC2(CC1)CN(S(C)(=O)=O)c1ccccc12 [Compound 163]	A (A refers to a compound having antagonist activity with Ki<100 nM in a cell based assay)
CCN(CC)CCCS(=O)(=O)N[C@H](COCc1ccccc1)C(=O)N1CCC2(C=Cc3ccccc32)CC1 [Compound 164]	A (A refers to a compound having antagonist activity with Ki<100 nM in a cell based assay)
